Data as given in PubChem BioAssay AID276 (DTP/NCI, 2004).
“And” between values parts separate entries of the source, which are not always exact repeats. Equal values may be shown once. Inconclusive results and toxic doses are left out. Positions of bridges follow the written chain, without caps; N, C: chain ends. Residues, ends and D or L forms follow the SMILES beside them.

Test system: B6C3F1 mice, Lewis lung carcinoma iv, survival T/C
Test: NCI In Vivo Anticancer Drug Screen. Data for tumor model Lewis Lung Carcinoma (intravenous) in B6C3F1 mice
Details: endpoint: median survival time, schedule: Q01DX009 (ip), higher = longer survival
Outline: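 Antitumor activity is assessed in tumor-bearing mice by comparing survival after compound treatment against vehicle-treated controls, reported as a T/C ratio.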

[1] = dose: 6.25 mg/kg/injection, vehicle: saline
[2] = dose: 12.5 mg/kg/injection, vehicle: saline
[3] = dose: 25.0 mg/kg/injection, vehicle: saline
[4] = dose: 100.0 mg/kg/injection, vehicle: saline
[5] = dose: 25.0 mg/kg/injection, vehicle: Klucel (hydroxypropylcellulose) (HPC)
[6] = dose: 50.0 mg/kg/injection, vehicle: Klucel (hydroxypropylcellulose) (HPC)
[7] = dose: 100.0 mg/kg/injection, vehicle: Klucel (hydroxypropylcellulose) (HPC)
[8] = dose: 200.0 mg/kg/injection, vehicle: Klucel (hydroxypropylcellulose) (HPC)
[9] = dose: 400.0 mg/kg/injection, vehicle: Klucel (hydroxypropylcellulose) (HPC)
[10] = dose: 0.25 mg/kg/injection, vehicle: saline with Tween-80
[11] = dose: 0.5 mg/kg/injection, vehicle: saline with Tween-80
[12] = dose: 1.0 mg/kg/injection, vehicle: saline with Tween-80
[13] = dose: 2.0 mg/kg/injection, vehicle: saline with Tween-80
[14] = dose: 12.5 mg/kg/injection, vehicle: suspension in saline
[15] = dose: 25.0 mg/kg/injection, vehicle: suspension in saline
[16] = dose: 12.5 mg/kg/injection, vehicle: Klucel (hydroxypropylcellulose) (HPC)
[17] = dose: 12.5 mg/kg/injection, vehicle: saline with Tween-80
[18] = dose: 25.0 mg/kg/injection, vehicle: saline with Tween-80
[19] = dose: 50.0 mg/kg/injection, vehicle: saline with Tween-80
[20] = dose: 100.0 mg/kg/injection, vehicle: saline with Tween-80
[21] = dose: 200.0 mg/kg/injection, vehicle: saline with Tween-80
[22] = dose: 6.25 mg/kg/injection, vehicle: saline with Tween-80

For `CC(=O)C(=O)O.CC(=O)C(=O)O.[NH-]C1CCCCC1[NH-].[Pt+2]` (stereo not drawn), the T/C (dose: 3.12 mg/kg/injection, vehicle: other) was 98 % of control, the T/C (dose: 6.25 mg/kg/injection, vehicle: other) was 109 % of control and the T/C (dose: 12.5 mg/kg/injection, vehicle: other) was 96 % of control.
`O=C(O)C1CSCN1` (stereo not drawn) was tested, and the T/C (dose: 3.12 mg/kg/injection, vehicle: saline) was 99 % of control, the T/C [1] was 108 % of control and the T/C [2] was 100 % of control. For the same compound, the T/C [3] was 101 % of control, the T/C (dose: 50.0 mg/kg/injection, vehicle: saline) was 101 % of control and the T/C [4] was 106 % of control.
For `Oc1c(Cl)cc(Cl)cc1C=NCCSc1ccc(Cl)cc1`, the T/C [5] was 94 % of control and 105 % of control, the T/C [6] was 98 % of control and 101 % of control and the T/C [7] was 97 % of control and 101 % of control. The T/C [8] was 97 % of control and 105 % of control and the T/C [9] was 101 % of control.
For `COc1ccc(CC2C(=O)NC(C)C(=O)N(C)C3Cc4ccc(cc4)Oc4cc(ccc4O)CC(C(=O)NC(C)C(=O)NC(C)C(=O)N2C)N(C)C3=O)cc1` (stereo not drawn), the T/C [10] was 110 % of control, the T/C [11] was 107 % of control and the T/C [12] was 106 % of control. For the same compound, the T/C [13] was 106 % of control.
For `NNC(=S)N/N=C/c1ccccn1`, the T/C (dose: 1.56 mg/kg/injection, vehicle: suspension in saline) was 102 % of control, the T/C (dose: 3.12 mg/kg/injection, vehicle: suspension in saline) was 86 % of control and the T/C [1] was 115 % of control. The T/C (dose: 6.25 mg/kg/injection, vehicle: suspension in saline) was 98 % of control, the T/C [2] was 115 % of control and the T/C [14] was 108 % of control. The T/C [3] was 154 % of control and the T/C [15] was 101 % of control.
`CC1=C[S+](c2ccccc2)c2cccc3cc4ccccc4c1c23` (stereo not drawn) was tested, and the T/C (dose: 0.12 mg/kg/injection, vehicle: saline with Tween-80) was 106 % of control, the T/C [10] was 113 % of control and the T/C [11] was 95 % of control. The T/C [12] was 100 % of control, the T/C [13] was 106 % of control and the T/C (dose: 4.0 mg/kg/injection, vehicle: saline with Tween-80) was 101 % of control.
In the case of `O=c1[nH]cnc2[nH]ncc12`, the T/C [14] is reported as 95 % of control, the T/C [15] is reported as 105 % of control and the T/C (dose: 50.0 mg/kg/injection, vehicle: suspension in saline) is reported as 95 % of control. The T/C (dose: 100.0 mg/kg/injection, vehicle: suspension in saline) was 106 % of control, the T/C (dose: 200.0 mg/kg/injection, vehicle: suspension in saline) was 112 % of control and the T/C (dose: 400.0 mg/kg/injection, vehicle: suspension in saline) was 120 % of control.
`NC(=O)c1c[se]c(C2OC(CO)C(O)C2O)n1` (stereo not drawn) was tested, and the T/C (dose: 0.75 mg/kg/injection, vehicle: water) was 107 % of control, the T/C (dose: 1.5 mg/kg/injection, vehicle: water) was 110 % of control and the T/C (dose: 3.0 mg/kg/injection, vehicle: water) was 152 % of control and 153 % of control. For the same compound, the T/C (dose: 6.0 mg/kg/injection, vehicle: water) was 297 % of control, the T/C (dose: 12.0 mg/kg/injection, vehicle: water) was 297 % of control and 355 % of control and the T/C (dose: 13.0 mg/kg/injection, vehicle: water) was 315 % of control. The T/C (dose: 24.0 mg/kg/injection, vehicle: water) was 297 % of control, the T/C (dose: 25.0 mg/kg/injection, vehicle: water) was 355 % of control and the T/C (dose: 33.0 mg/kg/injection, vehicle: water) was 94 % of control. The T/C (dose: 75.0 mg/kg/injection, vehicle: water) was 315 % of control and the T/C (dose: 100.0 mg/kg/injection, vehicle: water) was 120 % of control.
`COc1ccc2ccccc2c1C1NC(=O)c2ccccc2N1` (stereo not drawn) was tested, and the T/C [16] was 97 % of control, the T/C [5] was 100 % of control and the T/C [7] was 99 % of control. For the same compound, the T/C [8] was 101 % of control and the T/C [9] was 101 % of control.
For `C1OCN2CSCC12` (stereo not drawn), the T/C [17] was 103 % of control, the T/C [18] was 103 % of control and the T/C [19] was 102 % of control. For the same compound, the T/C [20] was 98 % of control, the T/C [21] was 96 % of control and the T/C (dose: 400.0 mg/kg/injection, vehicle: saline with Tween-80) was 89 % of control.
In the case of `COc1ccc(S(=O)(=O)N=N/C=C2\C=CC=CN2O)cc1OC`, the T/C (dose: 3.12 mg/kg/injection, vehicle: saline with Tween-80) is reported as 92 % of control, the T/C [22] is reported as 100 % of control and the T/C [17] is reported as 98 % of control. For the same compound, the T/C [18] was 93 % of control and the T/C [19] was 106 % of control.
`c1ccc2sc(SSN3CC4CCC(CC4)C3)nc2c1` was tested, and the T/C [17] was 100 % of control, the T/C [18] was 93 % of control and the T/C [19] was 90 % of control. For the same compound, the T/C [20] was 91 % of control and the T/C [21] was 106 % of control.
For `Nc1nc(N)c2cc(S(=O)(=O)c3ccccc3)ccc2n1`, the T/C [18] was 98 % of control, the T/C [19] was 98 % of control and the T/C [20] was 99 % of control.
In the case of `C=CCCC(=O)CCCC(=O)O[C@@H]1[C@@H]2[C@H](CC1(C)C)[C@H](O)[C@@]13O[C@@H]1[C@H](O)[C@@]1(CO1)[C@@]23C`, the T/C (dose: 3.12 micrograms/kg/injection, vehicle: Klucel (hydroxypropylcellulose) (HPC)) is reported as 113 % of control, the T/C (dose: 6.25 micrograms/kg/injection, vehicle: Klucel (hydroxypropylcellulose) (HPC)) is reported as 98 % of control and the T/C (dose: 12.5 micrograms/kg/injection, vehicle: Klucel (hydroxypropylcellulose) (HPC)) is reported as 97 % of control. The T/C (dose: 25.0 micrograms/kg/injection, vehicle: Klucel (hydroxypropylcellulose) (HPC)) was 94 % of control and the T/C (dose: 50.0 micrograms/kg/injection, vehicle: Klucel (hydroxypropylcellulose) (HPC)) was 110 % of control.
For `NC1=NC(=O)N2CC12` (stereo not drawn), the T/C [2] was 110 % of control, the T/C [3] was 110 % of control and the T/C [4] was 110 % of control. The T/C (dose: 200.0 mg/kg/injection, vehicle: saline) was 109 % of control.
`O=[N+]([O-])c1c(O)c(CNCCCO)cc(CNCCCO)c1O` was tested, and the T/C [1] was 100 % of control, the T/C [2] was 113 % of control and the T/C [3] was 102 % of control.
In the case of `CCC(C)C1NC(=O)C(CC(C)C)NC(=O)C(C(C)C)NC(=O)C2CSSCC(NC1=O)C(=O)N2` (stereo not drawn) (cyclo(CCVLI); disulfide 1-2; configuration not given here), the T/C (dose: 31.25 micrograms/kg/injection, vehicle: Klucel (hydroxypropylcellulose) (HPC)) is reported as 93 % of control, the T/C (dose: 62.5 micrograms/kg/injection, vehicle: Klucel (hydroxypropylcellulose) (HPC)) is reported as 99 % of control and the T/C (dose: 125.0 micrograms/kg/injection, vehicle: Klucel (hydroxypropylcellulose) (HPC)) is reported as 93 % of control. The T/C (dose: 250.0 micrograms/kg/injection, vehicle: Klucel (hydroxypropylcellulose) (HPC)) was 98 % of control, the T/C (dose: 500.0 micrograms/kg/injection, vehicle: Klucel (hydroxypropylcellulose) (HPC)) was 88 % of control and the T/C (dose: 1000.0 micrograms/kg/injection, vehicle: Klucel (hydroxypropylcellulose) (HPC)) was 100 % of control.
With `O=S(=O)(N=N/C=C1\C=CC=CN1O)c1cccs1` the T/C [17] was 111 % of control, the T/C [18] was 103 % of control and the T/C [19] was 103 % of control. The T/C [20] was 107 % of control.
`O=[N+]([O-])c1ccc(Sc2ccncn2)c([N+](=O)[O-])c1` was tested, and the T/C [22] was 90 % of control, the T/C [17] was 102 % of control and the T/C [18] was 95 % of control. For the same compound, the T/C [19] was 86 % of control and the T/C [20] was 99 % of control.
For `Nc1ncnc2c1nnn2C1OC(CO)C(O)C1O` (stereo not drawn), the T/C [16] was 110 % of control, the T/C [5] was 103 % of control and the T/C [6] was 105 % of control.
